Laboratory results: the kinase profiling compilation of Christmann-Franck et al. (2016)

Columns and labels:
Assay in all cases: KINOMEscan competition binding
Settings in all cases: compound 10.0 µM
[1] = target: AKT2 (human) (UniProt P31751)
[2] = target: MAPK15 (human) (UniProt Q8TD08)
[3] = target: PHKG1 (human) (UniProt Q16816)
[4] = target: MAPK8 (human) (UniProt P45983)
[5] = target: PAK4 (human) (UniProt O96013)
[6] = target: MAP4K1 (human) (UniProt Q92918)
[7] = target: CAMK1D (human) (UniProt Q8IU85)
[8] = target: STK32B (human) (UniProt Q9NY57)
[9] = target: MAP3K12 (human) (UniProt Q12852)
[10] = target: SIK1 (human) (UniProt P57059)
[11] = target: MARK4 (human) (UniProt Q96L34)
Sequence of MARK4 (human) (Q96L34 whole entry, looked up): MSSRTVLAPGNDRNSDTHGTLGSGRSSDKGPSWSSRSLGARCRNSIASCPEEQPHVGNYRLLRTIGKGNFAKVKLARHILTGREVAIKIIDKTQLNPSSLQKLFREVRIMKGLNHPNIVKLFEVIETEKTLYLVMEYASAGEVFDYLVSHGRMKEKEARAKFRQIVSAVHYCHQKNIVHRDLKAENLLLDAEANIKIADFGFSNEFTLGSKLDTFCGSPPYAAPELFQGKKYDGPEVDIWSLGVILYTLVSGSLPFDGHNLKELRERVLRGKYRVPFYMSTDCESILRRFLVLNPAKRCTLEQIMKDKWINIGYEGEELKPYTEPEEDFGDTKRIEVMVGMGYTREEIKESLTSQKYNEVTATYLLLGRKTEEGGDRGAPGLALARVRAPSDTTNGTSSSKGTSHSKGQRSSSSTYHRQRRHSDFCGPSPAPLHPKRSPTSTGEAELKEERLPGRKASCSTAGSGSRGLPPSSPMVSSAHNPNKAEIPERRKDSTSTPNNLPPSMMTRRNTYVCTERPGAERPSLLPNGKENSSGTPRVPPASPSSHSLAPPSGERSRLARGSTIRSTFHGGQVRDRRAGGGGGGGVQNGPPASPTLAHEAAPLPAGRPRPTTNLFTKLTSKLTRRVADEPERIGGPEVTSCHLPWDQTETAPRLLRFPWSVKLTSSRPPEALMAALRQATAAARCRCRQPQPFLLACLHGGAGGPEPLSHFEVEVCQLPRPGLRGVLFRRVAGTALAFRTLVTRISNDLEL

[12] = target: ITK (human) (UniProt Q08881)
[13] = target: TNK1 (human) (UniProt Q13470)
[14] = target: RPS6KA5 KD1 (human) (UniProt O75582)
[15] = target: FGFR3 (human) (UniProt P22607)
[16] = test system: KIT (human), P10721 [D816V]
[17] = target: NTRK3 (human) (UniProt Q16288)
Sequence of NTRK3 (human) (Q16288 whole entry, looked up): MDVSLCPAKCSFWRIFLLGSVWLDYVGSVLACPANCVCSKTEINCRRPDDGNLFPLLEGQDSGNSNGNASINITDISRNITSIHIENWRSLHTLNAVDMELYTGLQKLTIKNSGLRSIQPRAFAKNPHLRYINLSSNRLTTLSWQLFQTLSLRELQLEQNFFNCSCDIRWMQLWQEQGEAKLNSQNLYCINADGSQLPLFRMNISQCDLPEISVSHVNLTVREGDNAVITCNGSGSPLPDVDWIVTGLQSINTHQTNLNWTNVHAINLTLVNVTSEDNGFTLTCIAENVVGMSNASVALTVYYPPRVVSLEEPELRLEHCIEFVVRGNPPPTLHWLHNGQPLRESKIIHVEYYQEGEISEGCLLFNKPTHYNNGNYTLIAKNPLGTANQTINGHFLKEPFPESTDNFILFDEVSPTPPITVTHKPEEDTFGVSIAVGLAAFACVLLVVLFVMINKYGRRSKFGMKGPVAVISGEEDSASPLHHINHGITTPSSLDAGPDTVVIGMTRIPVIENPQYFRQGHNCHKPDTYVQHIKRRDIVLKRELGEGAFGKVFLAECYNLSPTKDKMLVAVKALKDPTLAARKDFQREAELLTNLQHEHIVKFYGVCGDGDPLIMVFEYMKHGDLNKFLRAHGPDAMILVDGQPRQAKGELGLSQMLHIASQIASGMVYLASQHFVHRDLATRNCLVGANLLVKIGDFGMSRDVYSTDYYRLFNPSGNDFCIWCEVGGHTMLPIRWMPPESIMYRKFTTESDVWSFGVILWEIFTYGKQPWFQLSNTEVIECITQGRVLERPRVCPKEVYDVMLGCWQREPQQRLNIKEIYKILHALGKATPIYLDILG

[18] = target: EPHA3 (human) (UniProt P29320)
[19] = target: TAOK3 (human) (UniProt Q9H2K8)
Sequence of TAOK3 (human) (Q9H2K8 whole entry, looked up): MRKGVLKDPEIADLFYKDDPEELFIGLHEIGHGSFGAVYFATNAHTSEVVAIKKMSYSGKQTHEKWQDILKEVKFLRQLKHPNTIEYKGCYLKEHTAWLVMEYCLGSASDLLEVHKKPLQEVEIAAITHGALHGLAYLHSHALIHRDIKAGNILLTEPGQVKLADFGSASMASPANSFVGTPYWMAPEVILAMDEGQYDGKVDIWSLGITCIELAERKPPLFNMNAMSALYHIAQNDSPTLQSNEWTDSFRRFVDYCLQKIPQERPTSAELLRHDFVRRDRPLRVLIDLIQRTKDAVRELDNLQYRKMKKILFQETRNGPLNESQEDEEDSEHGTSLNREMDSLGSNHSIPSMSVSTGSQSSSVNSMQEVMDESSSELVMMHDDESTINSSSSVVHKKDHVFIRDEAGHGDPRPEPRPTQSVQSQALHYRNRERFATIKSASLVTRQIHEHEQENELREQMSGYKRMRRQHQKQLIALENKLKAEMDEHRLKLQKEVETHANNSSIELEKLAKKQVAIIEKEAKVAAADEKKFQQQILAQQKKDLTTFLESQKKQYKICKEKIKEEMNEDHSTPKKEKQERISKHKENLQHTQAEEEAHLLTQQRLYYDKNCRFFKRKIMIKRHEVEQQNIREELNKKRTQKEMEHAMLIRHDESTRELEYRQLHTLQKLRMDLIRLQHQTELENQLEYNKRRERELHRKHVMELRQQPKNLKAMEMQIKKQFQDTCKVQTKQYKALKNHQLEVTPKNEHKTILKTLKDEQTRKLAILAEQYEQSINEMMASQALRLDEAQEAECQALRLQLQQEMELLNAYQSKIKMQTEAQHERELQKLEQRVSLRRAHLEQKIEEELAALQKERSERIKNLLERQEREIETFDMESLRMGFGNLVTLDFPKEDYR

[20] = target: TEC (human) (UniProt P42680)
[21] = target: MYLK2 (human) (UniProt Q9H1R3)
Sequence of MYLK2 (human) (Q9H1R3 whole entry, looked up): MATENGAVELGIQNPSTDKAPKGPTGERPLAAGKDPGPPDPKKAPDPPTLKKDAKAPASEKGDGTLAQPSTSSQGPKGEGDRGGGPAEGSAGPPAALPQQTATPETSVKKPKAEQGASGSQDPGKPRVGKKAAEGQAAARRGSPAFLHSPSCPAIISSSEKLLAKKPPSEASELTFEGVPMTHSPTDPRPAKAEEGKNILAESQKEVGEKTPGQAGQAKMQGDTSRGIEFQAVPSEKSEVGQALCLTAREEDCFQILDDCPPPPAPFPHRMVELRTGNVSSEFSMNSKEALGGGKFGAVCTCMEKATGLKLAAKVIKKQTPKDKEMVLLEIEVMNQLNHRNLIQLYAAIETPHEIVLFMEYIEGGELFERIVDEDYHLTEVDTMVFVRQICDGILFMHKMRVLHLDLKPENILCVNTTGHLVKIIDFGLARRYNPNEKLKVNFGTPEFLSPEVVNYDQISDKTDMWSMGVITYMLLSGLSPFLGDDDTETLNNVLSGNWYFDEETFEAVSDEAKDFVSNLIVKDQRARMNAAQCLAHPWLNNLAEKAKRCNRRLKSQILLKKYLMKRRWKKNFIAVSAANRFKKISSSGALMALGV

[22] = target: DCLK3 (human) (UniProt Q9C098)
[23] = target: ADCK4 (human) (UniProt Q96D53)
[24] = target: SRPK2 (human) (UniProt P78362)
[25] = target: PRKCH (human) (UniProt P24723)
[26] = target: HCK (human) (UniProt P08631)
[27] = target: MAP4K2 (human) (UniProt Q12851)
[28] = target: PRKG1 (human) (UniProt Q13976)
[29] = test system: ABL1 (human), P00519 [M351T]
[30] = target: LTK (human) (UniProt P29376)
[31] = target: PTK2B (human) (UniProt Q14289)
[32] = target: TESK1 (human) (UniProt Q15569)
[33] = target: NLK (human) (UniProt Q9UBE8)
[34] = target: MUSK (human) (UniProt O15146)
Sequence of MUSK (human) (O15146 whole entry, looked up): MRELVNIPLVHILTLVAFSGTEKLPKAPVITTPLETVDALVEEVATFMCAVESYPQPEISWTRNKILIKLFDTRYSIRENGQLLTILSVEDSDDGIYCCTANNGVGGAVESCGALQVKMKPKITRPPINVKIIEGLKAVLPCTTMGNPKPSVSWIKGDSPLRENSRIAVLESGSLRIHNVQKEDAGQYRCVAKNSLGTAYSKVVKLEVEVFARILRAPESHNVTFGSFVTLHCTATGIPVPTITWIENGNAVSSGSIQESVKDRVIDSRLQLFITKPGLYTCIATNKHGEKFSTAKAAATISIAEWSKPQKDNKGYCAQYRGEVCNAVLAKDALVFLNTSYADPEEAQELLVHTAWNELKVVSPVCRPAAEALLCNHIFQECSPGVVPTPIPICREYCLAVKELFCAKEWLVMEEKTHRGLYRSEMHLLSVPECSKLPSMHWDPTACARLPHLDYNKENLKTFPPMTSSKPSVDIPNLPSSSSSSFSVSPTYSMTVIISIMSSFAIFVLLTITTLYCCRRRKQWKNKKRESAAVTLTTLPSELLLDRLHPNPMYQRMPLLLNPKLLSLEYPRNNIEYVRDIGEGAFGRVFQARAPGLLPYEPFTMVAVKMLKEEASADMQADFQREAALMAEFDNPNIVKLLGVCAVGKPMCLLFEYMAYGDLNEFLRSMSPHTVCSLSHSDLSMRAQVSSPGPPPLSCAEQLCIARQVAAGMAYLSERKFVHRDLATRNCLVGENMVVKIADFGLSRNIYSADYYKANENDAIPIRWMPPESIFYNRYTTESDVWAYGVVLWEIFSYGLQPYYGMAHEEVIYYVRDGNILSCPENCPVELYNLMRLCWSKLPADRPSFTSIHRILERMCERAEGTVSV

[35] = target: TYK2 JH1 catalytic (human) (UniProt P29597)
[36] = target: PRKG2 (human) (UniProt Q13237)
[37] = target: MYLK (human) (UniProt Q15746)
[38] = target: CDK19 (human) (UniProt Q9BWU1)
[39] = target: JAK2 JH1 catalytic (human) (UniProt O60674)
[40] = target: FGFR1 (human) (UniProt P11362)

Sequence of MAP4K1 (human) (Q92918 whole entry, looked up): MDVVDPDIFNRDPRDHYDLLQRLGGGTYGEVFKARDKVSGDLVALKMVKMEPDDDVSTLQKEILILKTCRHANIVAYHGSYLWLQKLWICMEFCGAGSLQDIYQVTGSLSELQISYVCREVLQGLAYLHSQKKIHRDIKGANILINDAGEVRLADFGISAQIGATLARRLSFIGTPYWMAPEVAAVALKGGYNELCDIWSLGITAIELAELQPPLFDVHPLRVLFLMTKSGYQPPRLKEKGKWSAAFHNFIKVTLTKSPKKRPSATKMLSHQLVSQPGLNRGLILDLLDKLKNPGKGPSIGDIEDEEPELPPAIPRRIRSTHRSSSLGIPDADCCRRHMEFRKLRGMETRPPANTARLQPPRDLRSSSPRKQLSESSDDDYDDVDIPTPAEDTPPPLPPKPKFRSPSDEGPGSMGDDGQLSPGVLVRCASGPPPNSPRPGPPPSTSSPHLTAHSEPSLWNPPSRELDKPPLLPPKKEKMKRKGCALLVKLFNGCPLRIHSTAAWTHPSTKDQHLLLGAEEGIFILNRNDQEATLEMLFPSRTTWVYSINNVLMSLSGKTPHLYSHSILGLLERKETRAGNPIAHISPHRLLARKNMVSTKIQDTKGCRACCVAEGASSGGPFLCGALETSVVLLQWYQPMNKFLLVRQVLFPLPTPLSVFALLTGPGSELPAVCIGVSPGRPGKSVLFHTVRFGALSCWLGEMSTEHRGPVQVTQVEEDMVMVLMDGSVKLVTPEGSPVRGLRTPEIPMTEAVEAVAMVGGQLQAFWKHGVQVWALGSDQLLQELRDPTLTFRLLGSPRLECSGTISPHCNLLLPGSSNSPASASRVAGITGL

kinase still bound, per cent of control [1] [%] | kinase still bound, per cent of control [3] [%] | kinase still bound, per cent of control [4] [%] | kinase still bound, per cent of control [5] [%] | kinase still bound, per cent of control [6] [%] | kinase still bound, per cent of control [7] [%] | kinase still bound, per cent of control [8] [%] | kinase still bound, per cent of control [9] [%] | kinase still bound, per cent of control [10] [%] | kinase still bound, per cent of control [11] [%] | kinase still bound, per cent of control [12] [%] | kinase still bound, per cent of control [13] [%] | kinase still bound, per cent of control [14] [%] | kinase still bound, per cent of control [15] [%] | kinase still bound, per cent of control [16] [%] | kinase still bound, per cent of control [17] [%] | kinase still bound, per cent of control [18] [%] | kinase still bound, per cent of control [19] [%] | kinase still bound, per cent of control [20] [%] | SMILES | kinase still bound, per cent of control [2] [%] | other results
100 | 100 | 100 | 100 | 100 | 100 | 100 | 100 | 100 | 100 | 100 | 100 | 100 | 100 | 100 | 100 | 100 | 100 | 100 | Cn1c(=O)n(-c2ccc(C(C)(C)C#N)cc2)c2c3cc(-c4cnc5ccccc5c4)ccc3ncc21 | 100 | kinase still bound, per cent of control [21]: 100%; kinase still bound, per cent of control [22]: 100%; kinase still bound, per cent of control [23]: 100%; kinase still bound, per cent of control [24]: 100%; kinase still bound, per cent of control [25]: 100%; kinase still bound, per cent of control [26]: 100%; kinase still bound, per cent of control [27]: 11%; kinase still bound, per cent of control [28]: 100%; kinase still bound, per cent of control [29]: 100%; kinase still bound, per cent of control [30]: 33%; kinase still bound, per cent of control [31]: 100%; kinase still bound, per cent of control [32]: 100%; kinase still bound, per cent of control [33]: 100%; kinase still bound, per cent of control [34]: 100%; kinase still bound, per cent of control [35]: 100%; kinase still bound, per cent of control [36]: 100%; kinase still bound, per cent of control [37]: 100%; kinase still bound, per cent of control [38]: 100%; kinase still bound, per cent of control [39]: 20%; kinase still bound, per cent of control [40]: 100%
100 | 100 | 100 | 100 | 100 | 100 | 100 | 100 | 100 | 100 | 100 | 100 | 100 | 100 | 100 | 100 | 100 | 100 | 100 | OCCCNc1cc(-c2ccnc(Nc3cccc(Cl)c3)n2)ccn1 | 2 | kinase still bound, per cent of control [21]: 100%; kinase still bound, per cent of control [22]: 100%; kinase still bound, per cent of control [23]: 100%; kinase still bound, per cent of control [24]: 100%; kinase still bound, per cent of control [25]: 100%; kinase still bound, per cent of control [26]: 100%; kinase still bound, per cent of control [27]: 100%; kinase still bound, per cent of control [28]: 100%; kinase still bound, per cent of control [29]: 100%; kinase still bound, per cent of control [30]: 100%; kinase still bound, per cent of control [31]: 100%; kinase still bound, per cent of control [32]: 100%; kinase still bound, per cent of control [33]: 100%; kinase still bound, per cent of control [34]: 100%; kinase still bound, per cent of control [35]: 100%; kinase still bound, per cent of control [36]: 100%; kinase still bound, per cent of control [37]: 100%; kinase still bound, per cent of control [38]: 100%; kinase still bound, per cent of control [39]: 100%; kinase still bound, per cent of control [40]: 100%
